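Grown in 96-well plates, cells were treated for 48 hours with each compound at five concentrations. Insufficient inhibition: endpoint recorded as highest concentration tested. TGI denotes the concentration required for complete inhibition of growth.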
Columns and labels:
Assay in all cases: NCI-60 cell line screen, 48 h
A549 NSCLC = test system: A549 NSCLC
ACHN renal = test system: ACHN renal
CCRF-CEM leukemia = test system: CCRF-CEM leukemia
HL-60(TB) leukemia = test system: HL-60(TB) leukemia
HOP-92 NSCLC = test system: HOP-92 NSCLC
IGROV1 ovarian = test system: IGROV1 ovarian
M14 melanoma = test system: M14 melanoma
MCF7 breast = test system: MCF7 breast
MDA-N = test system: MDA-N
NCI-H226 lung = test system: NCI-H226 lung
NCI-H460 lung = test system: NCI-H460 lung
OVCAR-4 ovarian = test system: OVCAR-4 ovarian
SF-295 CNS = test system: SF-295 CNS
SK-OV-3 ovarian = test system: SK-OV-3 ovarian
SR leukemia = test system: SR leukemia
U251 CNS = test system: U251 CNS
UACC-257 melanoma = test system: UACC-257 melanoma
HCT-116 colon = test system: HCT-116 colon
MALME-3M melanoma = test system: MALME-3M melanoma
SN12C renal = test system: SN12C renal

| Structure (SMILES) | TGI (A549 NSCLC) [µM] | TGI (ACHN renal) [µM] | TGI (CCRF-CEM leukemia) [µM] | TGI (HL-60(TB) leukemia) [µM] | TGI (HOP-92 NSCLC) [µM] | TGI (IGROV1 ovarian) [µM] | TGI (M14 melanoma) [µM] | TGI (MCF7 breast) [µM] | TGI (MDA-N) [µM] | TGI (NCI-H226 lung) [µM] | TGI (NCI-H460 lung) [µM] | TGI (OVCAR-4 ovarian) [µM] | TGI (SF-295 CNS) [µM] | TGI (SK-OV-3 ovarian) [µM] | TGI (SR leukemia) [µM] | TGI (U251 CNS) [µM] | TGI (UACC-257 melanoma) [µM] | TGI (HCT-116 colon) [µM] | TGI (MALME-3M melanoma) [µM] | TGI (SN12C renal) [µM] |
| --- | --- | --- | --- | --- | --- | --- | --- | --- | --- | --- | --- | --- | --- | --- | --- | --- | --- | --- | --- | --- |
| CCOC(=O)c1csc(NC(=O)CCN2CCCC2)n1 | > 100 | > 100 | > 100 | > 100 | > 100 | > 100 | > 100 | > 100 | > 100 | > 100 | > 100 | > 100 | > 100 | > 100 | > 100 | > 100 | > 100 |  |  |  |
| O=C(C(=C(I)I)c1ccccc1)c1ccccc1 | > 100 | > 100 | 51.7 | 52.3 | 82.9 | 44.4 | 73.3 | > 100 | 62.1 |  | > 100 | > 100 | 65.5 | > 100 | 93.6 |  | > 100 | 36.9 | 46.8 | > 100 |
| COc1ccc(C2c3cc4c(cc3OC(Nc3ccccc3)C2C)OCO4)cc1 (stereo unspecified) | > 100 | > 100 | > 100 | 59.3 | > 100 | > 100 | > 100 | > 100 | > 100 | > 100 | > 100 |  | > 100 | > 100 | 9.18 | > 100 | > 100 | > 100 | > 100 | > 100 |
| CCCn1cc2c3c(cccc31)C1C=C(C)CN(C)C1C2 (stereo unspecified) | 70.5 |  | 44.9 | 5.56 | 37.9 | 60.4 |  | 37.8 |  | 40.9 | 36.6 | 29.8 | 55.2 | 71.4 |  | 52 | 29.6 | 38.5 | 55.5 | 60.9 |
| COc1cc(N=Nc2ccc(OC)c(S(=O)(=O)O)c2)c(C)cc1N=Nc1ccc(/C=C/c2ccc(N=[N+]([O-])c3ccc(/C=C/c4ccc(N=Nc5cc(C)c(N=Nc6ccc(OC)c(S(=O)(=O)O)c6)cc5OC)cc4S(=O)(=O)O)c(S(=O)(=O)O)c3)cc2S(=O)(=O)O)c(S(=O)(=O)O)c1 | > 100 |  | > 100 | > 100 | > 100 | > 100 |  | > 100 |  | > 100 | > 100 | > 100 | > 100 | > 100 |  | > 100 | > 100 | > 100 | > 100 | > 100 |

Reference: PubChem BioAssay (NCI)
